Results taken from patent US6133297A, “Thrombin inhibitors” (Merck & Co., Inc., priority 1998, dated 2000).
Non-standard residues stand in square brackets, D forms with d. Residues, ends and D or L forms follow the SMILES beside them. *: point of attachment. AFC = O=c1cc(C(F)(F)F)c2ccc(N*)cc2o1; pNA = O=[N+]([O-])c1ccc(N*)cc1; Cbz = O=C(OCc1ccccc1)*; Sar = CNCC(=O)O

Tests used:
[1] = target: T1, human a-thrombin (Homo sapiens, UniProt P00734); experiment: In vitro assay for determining proteinase inhibition (thrombin Ki); format: biochemical; conditions: 25° C., 0.05 M TRIS buffer pH 7.4, 0.15 M NaCl, 0.1% PEG
T1 construct: human a-thrombin
Experimental: In vitro Assay for Determining Proteinase Inhibition
(§1) Assays of human a-thrombin and human trypsin were performed at 25° C. in 0.05 M TRIS buffer pH 7.4, 0.15 M NaCl, 0.1% PEG. Trypsin assays also contained 1 mM CaCl2.
(§2) In certain studies with potent inhibitors (Ki <10 nM) where the degree of inhibition of thrombin was high, a more sensitive activity assay was employed. […] Concentrations of stock solutions of Z-GPR-afc were determined from measurements of absorbance at 380 nm of the 7-amino-4-trifluoromethylcoumarin produced upon complete hydrolysis of an aliquot of the stock solution by thrombin.
Activity assays were performed by diluting a stock solution of substrate at least tenfold to a final concentration <0.5 Km into a solution containing enzyme or enzyme equilibrated with inhibitor. Times required to achieve equilibration between enzyme and inhibitor were determined in control experiments. Initial velocities of product formation in the absence (V0) or presence of inhibitor (Vi) were measured. Assuming competitive inhibition, and that unity is negligible compared Km /[S], […] (where [S], [I], and e respectively represent the total concentrations, of substrate, inhibitor and enzyme), the equilibrium constant (Ki) for dissociation of the inhibitor from the enzyme can be obtained from the dependence of V0 /Vi on [I] shown in equation 1.

[2] = tested on: thrombin; experiment: Thrombin catalyzed hydrolysis of fluorogenic substrate (fluorescence at 500 nm); format: biochemical, human; conditions: fluorogenic substrate for thrombin, excitation at 400 nm
Experimental: as §1, §2

[3] = tested on: human trypsin; experiment: Hydrolysis of p-nitroanilide substrate by human trypsin (405 nm); format: biochemical; conditions: substrate for human trypsin, 25° C., pH 7.4, 1 mM CaCl2
Experimental: as §1

Ki [1] [µM]	SMILES	also measured
< 1	CSCC[C@H](NS(=O)(=O)Cc1ccccc1)C(=O)N[C@H](CCNc1ccncc1)Cc1ccccc1 [Bn 1 BnSO2 -- (S)-CH2 CH2 SCH3]	–
< 1	C[C@H](NS(=O)(=O)Cc1ccccc1)C(=O)N[C@H](CCNc1ccncc1)Cc1ccccc1 [Bn 1 BnSO2 -- (S)-CH3]	–
< 1	O=C(CNS(=O)(=O)Cc1ccccc1)N[C@H](CCNc1ccncc1)Cc1ccccc1 [Bn 1 BnSO2 -- H]	–
< 1	NC(Cc1ccc(Cl)cc1)C(=O)N[C@H](CCNc1ccncc1)Cc1ccccc1 (some centres unmarked) [Bn 1 H 4-ClBn--]	–
< 1	O=C(CNS(=O)(=O)C=Cc1ccccc1)N[C@H](CCNc1ccncc1)Cc1ccccc1 [Bn 1 PhCH=CHSO2 -- H]	–
> 1	O=C(CNS(=O)(=O)c1ccccc1)N[C@H](CNc1ccncc1)CC1CCCCC1 [c-hexylCH2 -- 0 PhSO2 -- H]	–

Continued, molecule first:

SMILES	Ki [1] [µM]	also measured
CC(C)[C@@H](CCNc1ccncc1)NC(=O)CNS(=O)(=O)c1ccc(Cl)c(Cl)c1 [(CH3)2 CH2 -- 1 3,4-di-Cl--PhSO2 -- H]	< 1	–
CC(C)[C@@H](CCNc1ccncc1)NC(=O)CNS(=O)(=O)Cc1ccccc1 [(CH3)2 CH2 -- 1 BnSO2 -- H]	> 1	–
O=C(CNS(=O)(=O)c1ccc(Cl)cc1)N[C@H](CNc1ccncc1)Cc1ccccc1 [Bn 0 4-ClPhSO2 -- H]	> 1	–
CC(C)(C)OC(=O)NCC(=O)N[C@H](CNc1ccncc1)Cc1ccccc1 [Bn 0 Boc H]	> 1	–
O=C(CNS(=O)(=O)c1ccccc1)N[C@H](CNc1ccncc1)Cc1ccccc1 [Bn 0 PhSO2 -- H]	> 1	–
O=C(CNS(=O)(=O)c1ccc2ccccc2c1)N[C@H](CCNc1ccncc1)Cc1ccccc1 [Bn 1 2-naphthSO2 -- H]	< 1	–
O=C(CNS(=O)(=O)Cc1ccc(Cl)c(Cl)c1)N[C@H](CCNc1ccncc1)Cc1ccccc1 [Bn 1 3,4-di-Cl--BnSO2 -- H]	< 1	–
O=C(N[C@H](CCNc1ccncc1)Cc1ccccc1)[C@H](CO)NS(=O)(=O)c1ccc(Cl)c(Cl)c1 [Bn 1 3,4-di-Cl--PhSO2 -- (S)-CH2 OH]	< 1	–
O=C(CNS(=O)(=O)c1ccc(Cl)c(Cl)c1)N[C@H](CCNc1ccncc1)Cc1ccccc1 [Bn 1 3,4-di-Cl--PhSO2 -- H]	< 1	–
O=C(CNS(=O)(=O)Cc1ccc(C(F)(F)F)cc1)N[C@H](CCNc1ccncc1)Cc1ccccc1 [Bn 1 4-CF3 --BnSO2 -- H]	< 1	–
O=C(CNS(=O)(=O)Cc1ccc(Cl)cc1)N[C@H](CCNc1ccncc1)Cc1ccccc1 [Bn 1 4-Cl--BnSO2 -- H]	< 1	–
O=C(CNS(=O)(=O)c1ccc(Cl)cc1)N[C@H](CCNc1ccncc1)Cc1ccccc1 [Bn 1 4-Cl--PhSO2 -- H]	< 1	–
COc1cc(C)c(S(=O)(=O)NCC(=O)N[C@H](CCNc2ccncc2)Cc2ccccc2)c(C)c1C [Bn 1 4-OCH3-2,3,6-MePhSO2 -- H]	< 1	–
C[C@@H](NS(=O)(=O)Cc1ccccc1)C(=O)N[C@H](CCNc1ccncc1)Cc1ccccc1 [Bn 1 BnSO2 -- (R)-CH3]	> 1	–
CS(=O)(=O)CC[C@H](NS(=O)(=O)Cc1ccccc1)C(=O)N[C@H](CCNc1ccncc1)Cc1ccccc1 [Bn 1 BnSO2 -- (S)- CH2 CH2 SO2 CH3]	< 1	–
N=C(N)NCCC[C@H](NC(=O)[C@@H]1CCCN1C(=O)CNC(=O)OCc1ccccc1)C(=O)Nc1ccc2c(C(F)(F)F)cc(=O)oc2c1 [Z-GPR-afc, Cbz-Gly-Pro-Arg-7-amino-4-trifluoromethylcoumarin] (Cbz-Gly-Pro-Arg-{AFC})	–	Km [2]: 27 µM
CNCC(=O)N1CCC[C@H]1C(=O)N[C@@H](CCCNC(=N)N)C(=O)Nc1ccc([N+](=O)[O-])cc1 [sar-PR-pna, sarcosine-Pro-Arg-p-nitroanilide] (H-[Sar]-Pro-Arg-pNA)	–	Km [3]: 59 µM
